Test results: patent US5455222A, “1-substituted-5-thiomethylthiocyanato-1H-tetrazoles, compositions containing them and their use as antimicrobial and marine antifouling agents” (The Dow Chemical Company, priority 1994, dated 1995)
≈ marks a conversion by molar mass, not a printed value.

Columns and labels:
[1] = system: Enterobacter aerogenes (Ea); test: Minimum inhibitory concentration (MIC), bacteria in nutrient agar; assay type: cell-based, Enterobacter aerogenes ATCC 13048; settings: Klebsiella aerogenes, 48 hours
Protocol: (§1) The minimum inhibitory concentration (MIC) for the compounds listed in Table I is determined for 9 bacteria, using nutrient agar, and 7 yeast and fungi, using malt yeast agar. A one percent solution of the test compound is prepared in a mixture of acetone and water.
(§2) Nutrient agar is prepared at pH 6.8, representing a neutral medium, and at pH 8.2, representing an alkaline medium. The nutrient agars are prepared by adding 23 g of nutrient agar to one liter of deionized water. In addition, the alkaline medium is prepared by adjusting a 0.04M solution of N-[tris-(hydroxymethyl)methyl]glycine buffered deionized water with concentrated sodium hydroxide to a pH of 8.5.
(§3) The test tubes containing the agar are cooled in a water bath until the temperature of the agar is 48° C. Then, an appropriate amount of the one percent solution of the test compound is added (except in the controls where no compound is added) to the respective test tubes so that the final concentrations are 500, 250, 100, 50, 25, 10, 5, 2.5, 1.0 and zero parts per million of the test compound in the agar, thus having a known concentration of test compound dispersed therein. The contents of the test tubes are then transferred to respective petri plates. After drying for 24 hours, the petri plates containing nutrient agar are inoculated with bacteria and those containing malt yeast agar are inoculated with yeast and fungi.
(§4) The inoculation with bacteria is accomplished by using the following procedure. Twenty-four hour-cultures of each of the bacteria are prepared by incubating the respective bacteria in tubes containing nutrient broth for 24 hours at 30° C. in a shaker. Dilutions of each of the 24 hour-cultures are made so that nine separate suspensions (one for each of the nine test bacteria) are made, each containing 10^8 colony forming units (CFU) per mL of suspension of a particular bacteria. Aliquots of 0.3 mL of each of the bacterial suspensions are used to fill the individual wells of Steer's Replicator. For each microbial suspension, 0.3 mL was used to fill three wells (i.e., three wells of 0.3 mL each) so that for the nine different bacteria, 27 wells are filled. The Steer's Replicator is then used to inoculate both the neutral and alkaline pH nutrient agar petri plates.
(§5) The inoculated petri plates are incubated at 30° C. for 48 hours and then read to determine if the test compound which is incorporated into the agar prevented growth of the respective bacteria.
(§6) Table II lists the bacteria, yeast and fungi used in the MIC test described above along with their respective American Type Culture Collection (ATCC) identification numbers.
(§7) In Tables III and IV, the MIC values of the compounds described in Table I as compared to the MIC of a standard commercial preservative (with 1-(3-chloroallyl)-3,5,7-triaza-1-azoniaadamantane chloride as the active agent and referred to in Tables III and IV as "STANDARD I") are set forth for the bacteria organisms and yeast/fungi organisms which are listed in Table II.

Proteus vulgaris (Pv) = test: as above; assay type: cell-based, Proteus vulgaris ATCC 881; settings: 48 hours
Protocol: as §1, §2, §3, §4, §5, §6, §7

[2] = system: Aureobasidium pullulan (Ap); test: Minimum inhibitory concentration (MIC), yeast/fungi in malt yeast agar; assay type: cell-based, Aureobasidium pullulan ATCC 16622; settings: 30° C., read after 48 hours for yeast and 72 hours for fungi
Protocol: as §1
(§8) Malt yeast agar is prepared by adding 3 g yeast extract and 45 g malt agar per liter of deionized water. The specific agar is dispensed in 30 mL aliquots into 25×200 mm test tubes, capped and autoclaved for 15 minutes at 115° C.
as §3
(§9) The inoculation with the yeast and fungi is accomplished as follows. Cultures of yeast and fungi are incubated for seven days on malt yeast agar at 30° C. These cultures are used to prepare suspensions by the following procedure. A suspension of each organism is prepared by adding 10 mL of sterile saline and 10 microliters of octylphenoxy polyethoxy ethanol to the agar slant of yeast or fungi. The sterile saline/octylphenoxy polyethoxy ethanol solution is then agitated with a sterile swab to suspend the microorganism grown on the slant. Each resulting suspension is diluted into sterile saline (1 part suspension to 9 parts sterile saline). Aliquots of these dilutions are placed in individual wells of Steer's Replicator and petri plates inoculated as previously described. The petri plates are incubated at 30° C. and read after 48 hours for yeast and 72 hours for fungi.
as §6, §7

Candida albicans (Ca) = test: as above; assay type: cell-based, Candida albicans ATCC 10231; settings: 30° C., 48 hours for yeast
Protocol: as §1, §8, §3, §9, §6, §7

Aspergillus niger (An) = test: as above; assay type: cell-based, Aspergillus niger ATCC 16404; settings: 30° C., 72 hours for fungi
Protocol: as §1, §8, §3, §9, §6, §7

[3] = system: Pseudomonas aeruginosa (PRD-10); test: Minimum inhibitory concentration (MIC), bacteria in nutrient agar; assay type: cell-based, Pseudomonas aeruginosa ATCC 15442; settings: 48 hours
Protocol: as §1, §2, §3, §4, §5, §6, §7

[4] = system: Pseudomonas aeruginosa (Pa); test: as above; assay type: cell-based, Pseudomonas aeruginosa ATCC 10145; settings: 48 hours
Protocol: as §1, §2, §3, §4, §5, §6, §7

marine organisms = test: Marine antifouling activity, coated test panels exposed to marine environment; settings: 6 weeks, scale 10 (completely free of growth) to 0 (completely covered)
Protocol: Test panels are prepared from clear, rigid polyvinyl chloride film that is 0.381×10^-3 m thick and has one textured surface. The test panels are 0.1524 m by 0.1524 m squares that have 0.00635 m holes punched at corners on 0.127 m centers. A 0.102 square template, with a 0.067 m diameter hole at the center, is attached to the center of the textured surface of the test panels.
A candidate marine antifoulant compound (1.0 g) is stirred into a resinous latex binder (9.0 g). A portion of the compound/binder mixture (1.5 g) is added to the center of the test panel and uniformly spread over the circular area inside the template.
Water is added dropwise as needed to properly spread the compound/binder mixture. The template prevents the compound/binder mixture from spreading beyond the uncovered area. […] The template is then removed. The test panel is then allowed to dry for 8 to 12 hours at room temperature.
Two test panels are prepared for each candidate marine antifoulant compound. Two control test panels are also prepared by only treating with the resinous latex binder. One test panel of each candidate marine […] compound is attached over a white background to the topside of an exposure support apparatus. The second test panel is attached over a black background to the underside of the exposure support apparatus. The exposure support apparatus is placed horizontally 0.0254 m under a marine surface with the white background topside facing up.
After being removed from the exposure support apparatus, each test panel is inspected and rated for marine organism growth on both the treated and untreated areas of the test panel. The marine organisms present on the treated and untreated areas are noted. The presence of algae spores and bacterial slime are noted but not included in rating each test panel. The test panels are rated on a scale from 10 (representing completely free of marine organism growth) to 0 (representing completely covered with marine organism growth).
In addition, test panels were prepared using tributyl tin oxide, a known marine antifouling compound.

[5] = system: Saccharomyces cerevisiae (Sc); test: Minimum inhibitory concentration (MIC), yeast/fungi in malt yeast agar; assay type: cell-based, Saccharomyces cerevisiae ATCC 4105; settings: 30° C., 48 hours for yeast
Protocol: as §1, §8, §3, §9, §6, §7

[6] = system: Penicillium chrysogenum (Pc); test: as above; assay type: cell-based, Penicillium chrysogenum ATCC 9480; settings: 30° C., 72 hours for fungi
Protocol: as §1, §8, §3, §9, §6, §7

[7] = system: Klebsiella pneumoniae (Kp); test: Minimum inhibitory concentration (MIC), bacteria in nutrient agar; assay type: cell-based, Klebsiella pneumoniae ATCC 8308; settings: 48 hours
Protocol: as §1, §2, §3, §4, §5, §6, §7

Bacillus subtilis (Bs) = test: as above; assay type: cell-based, Bacillus subtilis ATCC 8473; settings: 48 hours
Protocol: as §1, §2, §3, §4, §5, §6, §7

Escherichia coli (Ec) = test: as above; assay type: cell-based, Escherichia coli ATCC 11229; settings: 48 hours
Protocol: as §1, §2, §3, §4, §5, §6, §7

Fusarium oxysporum (Fo) = test: Minimum inhibitory concentration (MIC), yeast/fungi in malt yeast agar; assay type: cell-based, Fusarium oxysporum ATCC 48112; settings: 30° C., 72 hours for fungi
Protocol: as §1, §8, §3, §9, §6, §7

[8] = system: Salmonella choleraesuis (Sc); test: Minimum inhibitory concentration (MIC), bacteria in nutrient agar; assay type: cell-based, Salmonella choleraesuis ATCC 10708; settings: Salmonella enterica, 48 hours
Protocol: as §1, §2, §3, §4, §5, §6, §7

Trichoderma viride (Tv) = test: Minimum inhibitory concentration (MIC), yeast/fungi in malt yeast agar; assay type: cell-based, Trichoderma viride ATCC 8678; settings: 30° C., 72 hours for fungi
Protocol: as §1, §8, §3, §9, §6, §7

[9] = system: Staphylococcus aureus (Sa); test: Minimum inhibitory concentration (MIC), bacteria in nutrient agar; assay type: cell-based, Staphylococcus aureus ATCC 6538; settings: 48 hours
Protocol: as §1, §2, §3, §4, §5, §6, §7

N#CSCSc1nnnn1-c1ccccc1 [Example I, 1-Phenyl-5-thiomethylthiocyanato-1H-tetrazole]
MIC ([1]; nutrient agar pH 6.8, 30° C.): 250 µg/mL (≈ 1000 µM)
MIC ([1]; nutrient agar pH 8.2, 30° C.): 500 µg/mL (≈ 2010 µM)
MIC (Proteus vulgaris (Pv); nutrient agar pH 6.8, 30° C.): 25 µg/mL (≈ 100 µM)
MIC (Proteus vulgaris (Pv); nutrient agar pH 8.2, 30° C.): 100 µg/mL (≈ 401 µM)
MIC [2]: 2.5 µg/mL (≈ 10 µM)
MIC (Candida albicans (Ca)): 25 µg/mL (≈ 100 µM)
MIC (Aspergillus niger (An)): 5 µg/mL (≈ 20.1 µM)
MIC ([3]; nutrient agar pH 6.8, 30° C.): 250 µg/mL (≈ 1000 µM)
MIC ([3]; nutrient agar pH 8.2, 30° C.): 250 µg/mL (≈ 1000 µM)
MIC ([4]; nutrient agar pH 6.8, 30° C.): 100 µg/mL (≈ 401 µM)
MIC ([4]; nutrient agar pH 8.2, 30° C.): 100 µg/mL (≈ 401 µM)
Marine Antifouling Rating, 6 Week Test, Bottom Panel (marine organisms; bottom panel (black background)): 9
Marine Antifouling Rating, 6 Week Test, Top Panel (marine organisms; top panel (white background)): 9
MIC [5]: 5 µg/mL (≈ 20.1 µM)
MIC [6]: 2.5 µg/mL (≈ 10 µM)
MIC ([7]; nutrient agar pH 6.8, 30° C.): 100 µg/mL (≈ 401 µM)
MIC ([7]; nutrient agar pH 8.2, 30° C.): 100 µg/mL (≈ 401 µM)
MIC (Bacillus subtilis (Bs); nutrient agar pH 6.8, 30° C.): < 10 µg/mL
MIC (Bacillus subtilis (Bs); nutrient agar pH 8.2, 30° C.): 50 µg/mL (≈ 201 µM)
MIC (Escherichia coli (Ec); nutrient agar pH 6.8, 30° C.): 50 µg/mL (≈ 201 µM)
MIC (Escherichia coli (Ec); nutrient agar pH 8.2, 30° C.): 250 µg/mL (≈ 1000 µM)
MIC (Fusarium oxysporum (Fo)): 10 µg/mL (≈ 40.1 µM)
MIC ([8]; nutrient agar pH 6.8, 30° C.): 100 µg/mL (≈ 401 µM)
MIC ([8]; nutrient agar pH 8.2, 30° C.): 250 µg/mL (≈ 1000 µM)
MIC (Trichoderma viride (Tv)): 25 µg/mL (≈ 100 µM)
MIC ([9]; nutrient agar pH 6.8, 30° C.): 25 µg/mL (≈ 100 µM)
MIC ([9]; nutrient agar pH 8.2, 30° C.): 50 µg/mL (≈ 201 µM)
